Results: patent US12077503B2, “Substituted cyclic amides and their use as herbicides” (FMC CORPORATION, priority 2015, dated 2024)

What was measured:
Assay type in all cases: in vivo
[1] = tested on: velvetleaf (Abutilon theophrasti); test: Test G Pre-Emergence Protocol; conditions: Abutilon theophrasti, pre-emergence, 312 h, evaluated after 13 days; for pest or weed control at 15.625 g/ha: 15.625 g ai/ha; for pest or weed control at 15.625 g/ha / pest or weed control at 250 g/ha: read-out: Velvetleaf damage rating (100=total damage to plant; 0=no damage to plant); for pest or weed control at 62.5 g/ha: 62.5 g ai/ha, 100=total damage to plant, 0=no damage to plant, read-out: plant damage rating, Velvetleaf; for pest or weed control at 250 g/ha: 250 g ai/ha
Procedure, shortened: (§1)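 Pre-emergence spray, 15.625/62.5/250 g/ha, vehicle acetone:water 50:50 + 0.5% Tween 20, applied 1 d after sowing. Glasshouse 24/16° C, 14 h light, 65% RH, watered twice daily. Visual damage rating at 13 d, 0–100 scale.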

[2] = tested on: redroot pigweed (Amaranthus retroflexus); test: Test G Pre-Emergence Protocol; conditions: Amaranthus retroflexus, pre-emergence, 312 h, evaluated after 13 days; for pest or weed control at 15.625 g/ha: 15.625 g ai/ha; for pest or weed control at 15.625 g/ha / pest or weed control at 250 g/ha: read-out: Pigweed, Redroot damage rating (100=total damage to plant; 0=no damage to plant); for pest or weed control at 62.5 g/ha: 62.5 g ai/ha, 100=total damage to plant, 0=no damage to plant, read-out: plant damage rating, Pigweed, Redroot; for pest or weed control at 250 g/ha: 250 g ai/ha
Procedure, shortened: as §1

[3] = tested on: giant foxtail (Setaria faberi); test: Test G Pre-Emergence Protocol; conditions: Setaria faberi, pre-emergence, 312 h, evaluated after 13 days; for pest or weed control at 15.625 g/ha: 15.625 g ai/ha; for pest or weed control at 15.625 g/ha / pest or weed control at 250 g/ha: read-out: Foxtail, Giant damage rating (100=total damage to plant; 0=no damage to plant); for pest or weed control at 62.5 g/ha: 62.5 g ai/ha, 100=total damage to plant, 0=no damage to plant, read-out: plant damage rating, Foxtail, Giant; for pest or weed control at 250 g/ha: 250 g ai/ha
Procedure, shortened: as §1

[4] = tested on: ivy-leaved morning glory (Ipomoea hederacea); test: Test G Pre-Emergence Protocol; conditions: Ipomoea, pre-emergence, 312 h, evaluated after 13 days; for pest or weed control at 15.625 g/ha: 15.625 g ai/ha, read-out: Morning-glory, Ivy-leaved damage rating (100=total damage to plant; 0=no damage to plant); for pest or weed control at 62.5 g/ha: 62.5 g ai/ha, 100=total damage to plant, 0=no damage to plant, read-out: plant damage rating, Morningglory, Ivy-leaved; for pest or weed control at 250 g/ha: 250 g ai/ha, read-out: Morningglory, Ivy-leaved damage rating (100=total damage to plant; 0=no damage to plant)
Procedure, shortened: as §1

[5] = tested on: barnyardgrass (Echinochloa crus-galli); test: Test G Pre-Emergence Protocol; conditions: Echinochloa crus-galli, pre-emergence, 312 h, evaluated after 13 days; for pest or weed control at 15.625 g/ha: 15.625 g ai/ha, read-out: Barnyard grass damage rating (100=total damage to plant; 0=no damage to plant); for pest or weed control at 62.5 g/ha: 62.5 g ai/ha, 100=total damage to plant, 0=no damage to plant, read-out: plant damage rating, Barnyardgrass; for pest or weed control at 250 g/ha: 250 g ai/ha, read-out: Barnyardgrass damage rating (100=total damage to plant; 0=no damage to plant)
Procedure, shortened: as §1

[6] = tested on: corn (Zea mays); test: Test G Pre-Emergence Protocol; conditions: Zea mays, pre-emergence, 312 h, evaluated after 13 days; for plant injury at 15.625 g/ha: 15.625 g ai/ha; for plant injury at 15.625 g/ha / plant injury at 250 g/ha: read-out: Corn damage rating (100=total damage to plant; 0=no damage to plant); for plant injury at 62.5 g/ha: 62.5 g ai/ha, 100=total damage to plant, 0=no damage to plant, read-out: plant damage rating, Corn; for plant injury at 250 g/ha: 250 g ai/ha
Procedure, shortened: as §1

[7] = tested on: velvetleaf (Abutilon theophrasti); test: Test G Post-Emergence Protocol; conditions: Abutilon theophrasti, post-emergence, 312 h; for pest or weed control at 15.625 g/ha: 15.625 g ai/ha, evaluated after 13 days (100=total damage to plant; 0=no damage to plant), read-out: Velvetleaf damage rating; for pest or weed control at 62.5 g/ha: 62.5 g ai/ha, read-out: Velvetleaf damage rating (100=total damage to plant; 0=no damage to plant); for pest or weed control at 62.5 g/ha / pest or weed control at 250 g/ha: evaluated after 13 days; for pest or weed control at 250 g/ha: 250 g ai/ha, read-out: damage to plant, Velvetleaf (100=total damage to plant; 0=no damage to plant)
Procedure, shortened: (§2)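 Damage was rated 13 days after treatment from 0 (none) to 100 (plant killed). Compound was applied as a spray at 15.625, 62.5 or 250 g/ha in 50:50 acetone/water containing 0.5% Tween 20, onto 8-day-old potted plants kept in a glasshouse (24/16 °C, 14 h light, 65% humidity).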

[8] = tested on: redroot pigweed (Amaranthus retroflexus); test: Test G Post-Emergence Protocol; conditions: Amaranthus retroflexus, post-emergence, 312 h; for pest or weed control at 15.625 g/ha: 15.625 g ai/ha, evaluated after 13 days (100=total damage to plant; 0=no damage to plant), read-out: Pigweed, Redroot damage rating; for pest or weed control at 62.5 g/ha: 62.5 g ai/ha, read-out: Pigweed, Redroot damage rating (100=total damage to plant; 0=no damage to plant); for pest or weed control at 62.5 g/ha / pest or weed control at 250 g/ha: evaluated after 13 days; for pest or weed control at 250 g/ha: 250 g ai/ha, read-out: damage to plant, Pigweed, Redroot (100=total damage to plant; 0=no damage to plant)
Procedure, shortened: as §2

[9] = tested on: giant foxtail (Setaria faberi); test: Test G Post-Emergence Protocol; conditions: Setaria faberi, post-emergence, 312 h; for pest or weed control at 15.625 g/ha: 15.625 g ai/ha, evaluated after 13 days (100=total damage to plant; 0=no damage to plant), read-out: Foxtail, Giant damage rating; for pest or weed control at 62.5 g/ha: 62.5 g ai/ha, read-out: Foxtail, Giant damage rating (100=total damage to plant; 0=no damage to plant); for pest or weed control at 62.5 g/ha / pest or weed control at 250 g/ha: evaluated after 13 days; for pest or weed control at 250 g/ha: 250 g ai/ha, read-out: damage to plant, Foxtail, Giant (100=total damage to plant; 0=no damage to plant)
Procedure, shortened: as §2

[10] = tested on: ivy-leaved morning glory (Ipomoea hederacea); test: Test G Post-Emergence Protocol; conditions: Ipomoea, post-emergence, 312 h; for pest or weed control at 15.625 g/ha: 15.625 g ai/ha, evaluated after 13 days (100=total damage to plant; 0=no damage to plant), read-out: Morningglory, Ivy-leaved damage rating; for pest or weed control at 62.5 g/ha: 62.5 g ai/ha, read-out: Morningglory, Ivy-leaved damage rating (100=total damage to plant; 0=no damage to plant); for pest or weed control at 62.5 g/ha / pest or weed control at 250 g/ha: evaluated after 13 days; for pest or weed control at 250 g/ha: 250 g ai/ha, read-out: damage to plant, Morningglory, Ivy-leaved (100=total damage to plant; 0=no damage to plant)
Procedure, shortened: as §2

[11] = tested on: barnyardgrass (Echinochloa crus-galli); test: Test G Post-Emergence Protocol; conditions: Echinochloa crus-galli, post-emergence, 312 h; for pest or weed control at 15.625 g/ha: 15.625 g ai/ha, evaluated after 13 days (100=total damage to plant; 0=no damage to plant), read-out: Barnyardgrass damage rating; for pest or weed control at 62.5 g/ha: 62.5 g ai/ha, read-out: Barnyardgrass damage rating (100=total damage to plant; 0=no damage to plant); for pest or weed control at 62.5 g/ha / pest or weed control at 250 g/ha: evaluated after 13 days; for pest or weed control at 250 g/ha: 250 g ai/ha, read-out: damage to plant, Barnyardgrass (100=total damage to plant; 0=no damage to plant)
Procedure, shortened: as §2

[12] = tested on: corn (Zea mays); test: Test G Post-Emergence Protocol; conditions: Zea mays, post-emergence, 312 h; for plant injury at 15.625 g/ha: 15.625 g ai/ha, evaluated after 13 days (100=total damage to plant; 0=no damage to plant), read-out: Corn damage rating; for plant injury at 62.5 g/ha: 62.5 g ai/ha, read-out: Corn damage rating (100=total damage to plant; 0=no damage to plant); for plant injury at 62.5 g/ha / plant injury at 250 g/ha: evaluated after 13 days; for plant injury at 250 g/ha: 250 g ai/ha, read-out: damage to plant, Corn (100=total damage to plant; 0=no damage to plant)
Procedure, shortened: as §2

SMILES	pest or weed control at 15.625 g/ha [1] [%]	pest or weed control at 62.5 g/ha [1] [%]	pest or weed control at 250 g/ha [1] [%]	pest or weed control at 15.625 g/ha [2] [%]	pest or weed control at 62.5 g/ha [2] [%]	pest or weed control at 250 g/ha [2] [%]	pest or weed control at 15.625 g/ha [3] [%]	pest or weed control at 62.5 g/ha [3] [%]	pest or weed control at 250 g/ha [3] [%]	pest or weed control at 15.625 g/ha [4] [%]	pest or weed control at 62.5 g/ha [4] [%]	pest or weed control at 250 g/ha [4] [%]	pest or weed control at 15.625 g/ha [5] [%]	pest or weed control at 62.5 g/ha [5] [%]	pest or weed control at 250 g/ha [5] [%]	plant injury at 15.625 g/ha [6] [%]	plant injury at 62.5 g/ha [6] [%]	plant injury at 250 g/ha [6] [%]	pest or weed control at 15.625 g/ha [7] [%]	pest or weed control at 62.5 g/ha [7] [%]	also measured
Cc1cc(Cl)ncc1NC(=O)[C@@H]1C(=O)N(C)C[C@H]1c1ccc(C(F)(F)F)cc1 (racemic) [Compound 1578]	0	0	10	0	0	20	0	0	60	0	0	0	0	0	0	0	0	10	20	10	pest or weed control at 250 g/ha [7]: 20%; pest or weed control at 15.625 g/ha [8]: 0%; pest or weed control at 62.5 g/ha [8]: 20%; pest or weed control at 250 g/ha [8]: 30%; pest or weed control at 15.625 g/ha [9]: 0%; pest or weed control at 62.5 g/ha [9]: 10%; pest or weed control at 250 g/ha [9]: 60%; pest or weed control at 15.625 g/ha [10]: 0%; pest or weed control at 62.5 g/ha [10]: 10%; pest or weed control at 250 g/ha [10]: 30%; pest or weed control at 15.625 g/ha [11]: 0%; pest or weed control at 62.5 g/ha [11]: 20%; pest or weed control at 250 g/ha [11]: 20%; plant injury at 15.625 g/ha [12]: 0%; plant injury at 62.5 g/ha [12]: 0%; plant injury at 250 g/ha [12]: 10%
CN1C[C@@H](c2ccc(C(F)(F)F)cc2)[C@H](C(=O)Nc2nccnc2Cl)C1=O (racemic) [Compound 1552]	0	0	0	0	0	0	0	0	0	0	0	0	0	0	0	0	0	0	0	0	pest or weed control at 250 g/ha [7]: 0%; pest or weed control at 15.625 g/ha [8]: 0%; pest or weed control at 62.5 g/ha [8]: 0%; pest or weed control at 250 g/ha [8]: 0%; pest or weed control at 15.625 g/ha [9]: 0%; pest or weed control at 62.5 g/ha [9]: 0%; pest or weed control at 250 g/ha [9]: 0%; pest or weed control at 15.625 g/ha [10]: 0%; pest or weed control at 62.5 g/ha [10]: 0%; pest or weed control at 250 g/ha [10]: 0%; pest or weed control at 15.625 g/ha [11]: 0%; pest or weed control at 62.5 g/ha [11]: 0%; pest or weed control at 250 g/ha [11]: 0%; plant injury at 15.625 g/ha [12]: 10%; plant injury at 62.5 g/ha [12]: 10%; plant injury at 250 g/ha [12]: 10%
Cc1nnc(NC(=O)[C@@H]2C(=O)N(C)C[C@H]2c2ccc(C(F)(F)F)cc2)nc1C (racemic) [Compound 1549]	0	0	0	0	0	0	0	0	0	0	0	0	0	0	0	0	0	0	0	0	pest or weed control at 250 g/ha [7]: 0%; pest or weed control at 15.625 g/ha [8]: 0%; pest or weed control at 62.5 g/ha [8]: 0%; pest or weed control at 250 g/ha [8]: 0%; pest or weed control at 15.625 g/ha [9]: 0%; pest or weed control at 62.5 g/ha [9]: 0%; pest or weed control at 250 g/ha [9]: 0%; pest or weed control at 15.625 g/ha [10]: 0%; pest or weed control at 62.5 g/ha [10]: 0%; pest or weed control at 250 g/ha [10]: 0%; pest or weed control at 15.625 g/ha [11]: 0%; pest or weed control at 62.5 g/ha [11]: 0%; pest or weed control at 250 g/ha [11]: 0%; plant injury at 15.625 g/ha [12]: 0%; plant injury at 62.5 g/ha [12]: 0%; plant injury at 250 g/ha [12]: 0%
